Where two headings read alike, the source gives them in different places. Bridge positions count the residues as written; N and C are the ends. Square brackets hold non-standard residues; d marks the D form. Peptide text beside a SMILES is read from it. Nle = CCCC[C@H](N)C(=O)O

One experiment addresses Rat whole blood (Rattus norvegicus, UniProt P15384).
Experiment [1] deals with T1, human Kv1.3 voltage-gated K+ channel (Homo sapiens, UniProt P22001).
T1 construct: host or cells: CHO-DUKX
Description: cell-based. The following applies: inhibition of thallium flux, CHO-DUKX cells with human Kv1.3; read-out: IC50.

Where [2] appears, read: inhibition of IL-17A release, thapsigargin, 24 Hr, at least 2 replicates.

Sequence of Rat whole blood (P15384 whole entry): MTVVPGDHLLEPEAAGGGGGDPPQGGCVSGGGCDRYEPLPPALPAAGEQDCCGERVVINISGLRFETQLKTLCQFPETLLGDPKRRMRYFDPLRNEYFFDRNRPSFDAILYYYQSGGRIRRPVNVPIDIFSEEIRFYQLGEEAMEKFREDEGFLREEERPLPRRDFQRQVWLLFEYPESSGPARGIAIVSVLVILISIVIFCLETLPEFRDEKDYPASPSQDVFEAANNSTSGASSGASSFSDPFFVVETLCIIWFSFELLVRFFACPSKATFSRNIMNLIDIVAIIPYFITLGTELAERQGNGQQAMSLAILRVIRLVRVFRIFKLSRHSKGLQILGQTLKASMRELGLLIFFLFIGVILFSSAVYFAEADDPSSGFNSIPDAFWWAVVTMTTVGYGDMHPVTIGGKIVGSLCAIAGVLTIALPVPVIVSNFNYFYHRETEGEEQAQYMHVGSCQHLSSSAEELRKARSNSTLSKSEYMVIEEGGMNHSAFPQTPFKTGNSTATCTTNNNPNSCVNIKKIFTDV
T1 sequence (P22001 whole entry): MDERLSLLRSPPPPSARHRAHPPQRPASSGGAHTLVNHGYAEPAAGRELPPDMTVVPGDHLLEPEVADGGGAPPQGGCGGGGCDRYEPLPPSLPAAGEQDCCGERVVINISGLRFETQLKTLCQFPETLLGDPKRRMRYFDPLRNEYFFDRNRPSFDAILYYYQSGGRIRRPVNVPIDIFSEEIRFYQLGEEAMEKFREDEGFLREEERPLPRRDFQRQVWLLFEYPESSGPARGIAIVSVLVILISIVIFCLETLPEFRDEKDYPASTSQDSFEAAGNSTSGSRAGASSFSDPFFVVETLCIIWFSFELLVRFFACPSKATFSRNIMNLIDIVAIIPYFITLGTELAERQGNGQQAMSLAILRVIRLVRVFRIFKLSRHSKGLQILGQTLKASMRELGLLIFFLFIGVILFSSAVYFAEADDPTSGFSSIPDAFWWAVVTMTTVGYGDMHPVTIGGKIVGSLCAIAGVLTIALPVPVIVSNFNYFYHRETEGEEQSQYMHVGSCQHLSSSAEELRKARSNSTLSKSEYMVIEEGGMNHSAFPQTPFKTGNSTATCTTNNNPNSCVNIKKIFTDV

The term IC50 denotes the point on the concentration scale where inhibition reaches its midpoint. In the case of `CC[C@H](C)[C@@H]1NC(=O)[C@H](C)NC(=O)[C@H](CCCCN)NC(=O)[C@H](CC(C)C)NC(=O)[C@@H]2CSSC[C@@H](C(=O)N[C@@H](Cc3ccc(O)cc3)C(=O)N3CCC[C@H]3C(=O)N[C@@H](CCCNC(=N)N)C(N)=O)NC(=O)[C@H](CCCCN)NC(=O)[C@@H]3CSSC[C@H](NC(=O)[C@H](CCC(=O)O)NC(=O)[C@H](C(C)C)NC(=O)[C@H](CO)NC(=O)[C@H](C)NC(=O)[C@H](CO)NC(=O)[C@@H](NC(=O)[C@H](CCCNC(=N)N)NC(=O)[C@H](CCSC)NC(=O)[C@H](CC(=O)O)NC(=O)[C@H](CCSC)NC(=O)[C@@H](N)CC(N)=O)CSSC[C@H](NC(=O)[C@H](CCCCN)NC(=O)CNC(=O)[C@H](Cc4ccccc4)NC(=O)[C@H]([C@@H](C)CC)NC(=O)[C@H](CO)NC(=O)[C@H](Cc4c[nH]cn4)NC1=O)C(=O)N[C@@H](CCSC)C(=O)N[C@@H](CC(N)=O)C(=O)N[C@@H](CCCCN)C(=O)N[C@@H](CCCCN)C(=O)N3)C(=O)N[C@@H](CCCCN)C(=O)N[C@@H](CCC(N)=O)C(=O)N[C@@H](CCCCN)C(=O)N2` [Compound 33] (H-NMDMRCSASVECKQKCLKAIHSIFGKCMNKKCKCYPR-NH2; disulfide 6-27, 12-32, 16-34), the 50% inhibitory concentration (IC50) at Rat whole blood is not above 1 nM; at Rat whole blood (setting [2]), 0.7 nM; in experiment [1] it was 0.14 nM.
For the compound `CC[C@H](C)[C@@H]1NC(=O)[C@H](C)NC(=O)[C@H](CCCCN)NC(=O)[C@H](CC(C)C)NC(=O)[C@@H]2CSSC[C@@H](C(=O)N[C@@H](Cc3ccc(O)cc3)C(=O)N3CCC[C@H]3C(=O)N[C@@H](CCCNC(=N)N)C(N)=O)NC(=O)[C@H](C(C)C)NC(=O)[C@@H]3CSSC[C@H](NC(=O)[C@H](CCC(=O)O)NC(=O)[C@H](C(C)C)NC(=O)[C@H](CO)NC(=O)[C@H](C)NC(=O)[C@H](CO)NC(=O)[C@@H](NC(=O)[C@H](CCCNC(=N)N)NC(=O)[C@H](CCSC)NC(=O)[C@H](CC(=O)O)NC(=O)[C@H](CCSC)NC(=O)[C@@H](N)CC(N)=O)CSSC[C@H](NC(=O)[C@H](CCCCN)NC(=O)CNC(=O)[C@H](Cc4ccccc4)NC(=O)[C@H]([C@@H](C)CC)NC(=O)[C@H](CO)NC(=O)CNC1=O)C(=O)N[C@@H](CCSC)C(=O)N[C@@H](CC(N)=O)C(=O)N[C@@H](CCCCN)C(=O)N[C@@H](CCCCN)C(=O)N3)C(=O)N[C@@H](CCCCN)C(=O)N[C@@H](CCC(N)=O)C(=O)N[C@@H](CCCCN)C(=O)N2` [Compound 38] (H-NMDMRCSASVECKQKCLKAIGSIFGKCMNKKCVCYPR-NH2; disulfide 6-27, 12-32, 16-34), the IC50 is 2.8 nM at Rat whole blood (setting [2]) and 0.46 nM in experiment [1].
Regarding `CCCC[C@@H]1NC(=O)[C@@H]2CSSC[C@H](NC(=O)[C@H](CCCNC(=N)N)NC(=O)[C@H](CCCC)NC(=O)[C@H](CC(=O)O)NC(=O)[C@H](CCCC)NC(=O)[C@@H](N)CC(N)=O)C(=O)N[C@@H](CO)C(=O)N[C@@H](C)C(=O)N[C@@H](CO)C(=O)N[C@@H](C(C)C)C(=O)N[C@@H](CCC(=O)O)C(=O)N[C@H]3CSSC[C@H](NC(=O)[C@H](CCCCN)NC(=O)[C@H](CCCCN)NC(=O)[C@H](CC(N)=O)NC1=O)C(=O)N[C@@H](CCCCN)C(=O)N[C@H](C(=O)N[C@@H](Cc1ccc(O)cc1)C(=O)N1CCC[C@H]1C(=O)N[C@@H](CCCNC(=N)N)C(N)=O)CSSC[C@H](NC(=O)[C@H](CCCCN)NC(=O)[C@H](CCC(N)=O)NC(=O)[C@H](CCC(=O)O)NC3=O)C(=O)N[C@@H](CC(C)C)C(=O)N[C@@H](CCCCN)C(=O)N[C@@H](C)C(=O)N[C@@H]([C@@H](C)CC)C(=O)NCC(=O)N[C@@H](CO)C(=O)N[C@@H]([C@@H](C)CC)C(=O)N[C@@H](Cc1ccccc1)C(=O)NCC(=O)N[C@@H](CCCCN)C(=O)N2` [Compound 43] (H-N[Nle]D[Nle]RCSASVECEQKCLKAIGSIFGKC[Nle]NKKCKCYPR-NH2; disulfide 6-27, 12-32, 16-34), the half-maximal inhibitory concentration (IC50) against Rat whole blood was not above 1 nM; on Rat whole blood (setting [2]), 0.99 nM; in experiment [1], 0.5 nM.
For `CCCC[C@@H]1NC(=O)[C@@H]2CSSC[C@H](NC(=O)[C@H](CCCNC(=N)N)NC(=O)[C@H](CCCC)NC(=O)[C@H](CC(=O)O)NC(=O)[C@H](CCCC)NC(=O)[C@@H](N)CC(N)=O)C(=O)N[C@@H](CO)C(=O)N[C@@H](C)C(=O)N[C@@H](CO)C(=O)N[C@@H](C(C)C)C(=O)N[C@@H](CCC(=O)O)C(=O)N[C@H]3CSSC[C@H](NC(=O)[C@H](CCCCN)NC(=O)[C@H](CCCCN)NC(=O)[C@H](CC(N)=O)NC1=O)C(=O)N[C@@H](CCCCN)C(=O)N[C@H](C(=O)N[C@@H](Cc1ccc(O)cc1)C(=O)N1CCC[C@H]1C(=O)N[C@@H](CCCNC(=N)N)C(N)=O)CSSC[C@H](NC(=O)[C@H](CCCCN)NC(=O)[C@H](CCC(N)=O)NC(=O)[C@H](CCC(N)=O)NC3=O)C(=O)N[C@@H](CC(C)C)C(=O)N[C@@H](CCCCN)C(=O)N[C@@H](C)C(=O)N[C@@H]([C@@H](C)CC)C(=O)NCC(=O)N[C@@H](CO)C(=O)N[C@@H]([C@@H](C)CC)C(=O)N[C@@H](Cc1ccccc1)C(=O)NCC(=O)N[C@@H](CCCCN)C(=O)N2` [Compound 44] (H-N[Nle]D[Nle]RCSASVECQQKCLKAIGSIFGKC[Nle]NKKCKCYPR-NH2; disulfide 6-27, 12-32, 16-34), the IC50 against Rat whole blood (setting [2]) is 1.1 nM; in experiment [1], 0.13 nM.
On Rat whole blood, `CCCC[C@H](NC(=O)[C@H](CC(=O)O)NC(=O)[C@H](CCCC)NC(=O)[C@@H](N)CO)C(=O)N[C@@H](CCCNC(=N)N)C(=O)N[C@H]1CSSC[C@@H]2NC(=O)[C@H](CCCCN)NC(=O)CNC(=O)[C@H](Cc3ccccc3)NC(=O)[C@H]([C@@H](C)CC)NC(=O)[C@H](CO)NC(=O)CNC(=O)[C@H]([C@@H](C)CC)NC(=O)[C@H](C)NC(=O)[C@H](CCCCN)NC(=O)[C@H](CC(C)C)NC(=O)[C@@H]3CSSC[C@@H](C(=O)N[C@@H](Cc4ccc(O)cc4)C(=O)N4CCC[C@H]4C(=O)N[C@@H](CCCNC(=N)N)C(N)=O)NC(=O)[C@H](CCCNC(=N)N)NC(=O)[C@H](CSSC[C@H](NC(=O)[C@H](CCC(=O)O)NC(=O)[C@H](C(C)C)NC(=O)[C@H](CO)NC(=O)[C@H](C)NC(=O)[C@H](CO)NC1=O)C(=O)N[C@@H](CCCCN)C(=O)N[C@@H](CCC(N)=O)C(=O)N[C@@H](CCCCN)C(=O)N3)NC(=O)[C@H](CCCCN)NC(=O)[C@H](CCCCN)NC(=O)[C@H](CC(N)=O)NC(=O)[C@H](CCSC)NC2=O` [Compound 75] had a 50% inhibitory concentration (IC50) not above 1 nM.
With `CCCC[C@H](NC(=O)[C@@H]1CCCN1)C(=O)N[C@@H](CCC(=O)O)C(=O)N[C@@H](CCCC)C(=O)N[C@@H](CCCNC(=N)N)C(=O)N[C@H]1CSSC[C@@H]2NC(=O)[C@H](CCCCN)NC(=O)CNC(=O)[C@H](Cc3ccccc3)NC(=O)[C@H]([C@@H](C)CC)NC(=O)[C@H](CO)NC(=O)CNC(=O)[C@H]([C@@H](C)CC)NC(=O)[C@H](C)NC(=O)[C@H](C)NC(=O)[C@H](CC(C)C)NC(=O)[C@@H]3CSSC[C@@H](C(=O)N[C@@H](Cc4ccc(O)cc4)C(=O)N4CCC[C@H]4C(=O)N[C@@H](CCCNC(=N)N)C(=O)O)NC(=O)[C@H](CCCCN)NC(=O)[C@H](CSSC[C@H](NC(=O)[C@H](CCC(=O)O)NC(=O)[C@H](C(C)C)NC(=O)[C@H](CO)NC(=O)[C@H](C)NC(=O)[C@H](Cc4ccccc4)NC1=O)C(=O)N[C@@H](CCCCN)C(=O)N[C@@H](CCC(N)=O)C(=O)N[C@@H](CCCCN)C(=O)N3)NC(=O)[C@H](CCCCN)NC(=O)[C@H](CCCCN)NC(=O)[C@H](CC(N)=O)NC(=O)[C@H](CCCC)NC2=O` [Compound 143] (H-P[Nle]E[Nle]RCFASVECKQKCLAAIGSIFGKC[Nle]NKKCKCYPR-OH; disulfide 6-27, 12-32, 16-34), the concentration for half-maximal inhibition (IC50) in experiment [1] came out at 0.316 nM.
On to `CCCC[C@H](NC(=O)[C@@H]1CCCN1)C(=O)N[C@@H](CCC(=O)O)C(=O)N[C@@H](CCCC)C(=O)N[C@@H](CCCNC(=N)N)C(=O)N[C@H]1CSSC[C@@H]2NC(=O)[C@H](CCCCN)NC(=O)CNC(=O)[C@H](Cc3ccccc3)NC(=O)[C@H]([C@@H](C)CC)NC(=O)[C@H](CO)NC(=O)CNC(=O)[C@H]([C@@H](C)CC)NC(=O)[C@H](C)NC(=O)[C@H](C)NC(=O)[C@H](CC(C)C)NC(=O)[C@@H]3CSSC[C@@H](C(=O)N[C@@H](Cc4ccc(O)cc4)C(=O)N4CCC[C@H]4C(=O)N[C@@H](CCCNC(=N)N)C(=O)O)NC(=O)[C@H](CCCCN)NC(=O)[C@H](CSSC[C@H](NC(=O)[C@H](CCC(=O)O)NC(=O)[C@H](C(C)C)NC(=O)[C@H](CO)NC(=O)[C@H](Cc4ccc(O)cc4)NC(=O)[C@H](CO)NC1=O)C(=O)N[C@@H](CCCCN)C(=O)N[C@@H](CCC(N)=O)C(=O)N[C@@H](CCCCN)C(=O)N3)NC(=O)[C@H](CCCCN)NC(=O)[C@H](CCCCN)NC(=O)[C@H](CC(N)=O)NC(=O)[C@H](CCCC)NC2=O` [Compound 144] (H-P[Nle]E[Nle]RCSYSVECKQKCLAAIGSIFGKC[Nle]NKKCKCYPR-OH; disulfide 6-27, 12-32, 16-34), for which the IC50 in experiment [1] amounted to 0.739 nM.
Still for that read-out and setting: the value for `CCCC[C@H](NC(=O)[C@@H]1CCCN1)C(=O)N[C@@H](CCC(=O)O)C(=O)N[C@@H](CCCC)C(=O)N[C@@H](CCCNC(=N)N)C(=O)N[C@H]1CSSC[C@@H]2NC(=O)[C@H](CCCCN)NC(=O)CNC(=O)[C@H](Cc3ccccc3)NC(=O)[C@H]([C@@H](C)CC)NC(=O)[C@H](CO)NC(=O)CNC(=O)[C@H]([C@@H](C)CC)NC(=O)[C@H](C)NC(=O)[C@H](C)NC(=O)[C@H](CC(C)C)NC(=O)[C@@H]3CSSC[C@@H](C(=O)N[C@@H](Cc4ccc(O)cc4)C(=O)N4CCC[C@H]4C(=O)N[C@@H](CCCNC(=N)N)C(=O)O)NC(=O)[C@H](CCCCN)NC(=O)[C@H](CSSC[C@H](NC(=O)[C@H](CCC(=O)O)NC(=O)[C@H](C(C)C)NC(=O)[C@H](Cc4ccccc4)NC(=O)[C@H](C)NC(=O)[C@H](CO)NC1=O)C(=O)N[C@@H](CCCCN)C(=O)N[C@@H](CCC(N)=O)C(=O)N[C@@H](CCCCN)C(=O)N3)NC(=O)[C@H](CCCCN)NC(=O)[C@H](CCCCN)NC(=O)[C@H](CC(N)=O)NC(=O)[C@H](CCCC)NC2=O` [Compound 145] (H-P[Nle]E[Nle]RCSAFVECKQKCLAAIGSIFGKC[Nle]NKKCKCYPR-OH; disulfide 6-27, 12-32, 16-34) was 8.26 nM; that for “H-NMDMRCSASVECKQKCLKAIGSIFGKCMNKKCKCYPRHRRK-NH2 (disulfide 6-27, 12-32, 16-34) [Compound 24]” was 0.073 nM.

The record behind these values is patent US11780893B2, “Kv1.3 blockers” (Zealand Pharma A/S, priority 2019, dated 2023).
